# Source: ChEMBL document CHEMBL4334505, “Tri- and Diterpenoids from Stillingia loranthacea as Inhibitors of Zika Virus Replication” (J Nat Prod, 2019)
# Active and inactive are the calls of the source. The calls are words filed in the database; no cut-off is given here.
# Legend:
# [1] = tested on: Zika virus; test: Antiviral activity against Zika virus PE243 infected in African green monkey Vero cells assessed as reduction in viral replication by measuring viral titer at CC20 incubated for 5 days by standard TCID50 method; format: functional, organism-based
# [2] = (§1) Cytotoxicity against African green monkey Vero cells assessed as reduction in cell viability measured after 1 hr by MTT assay; format: cell-based; conditions: chlorocebus sabaeus, Vero cells
# [3] = tested on: Vero; test: as §1; format: cell-based; conditions: chlorocebus sabaeus, vero, 1 h
# [4] = tested on: Zika virus; test: Antiviral activity against Zika virus PE243 infected in African green monkey Vero cells assessed as reduction in viral replication by measuring viral titer per ml of cells at CC20 incubated for 5 days by standard TCID50 method (reference value: 6.7); format: functional
# [5] = (§2) Cytotoxicity against African green monkey Vero cells assessed as reduction in cell viability measured after 120 hrs by MTT assay; format: cell-based; conditions: chlorocebus sabaeus, Vero cells
# [6] = tested on: Vero; test: as §2; format: cell-based; conditions: chlorocebus sabaeus, vero, 120 h
Compound,inhibition [1],CC50 at 1 h [2] [µM],CC20 [3] [µM],log10 TCID50 [4],CC50 at 120 h [5] [µM],CC20 [6] [µM]
CCCCCCCCCCCCCC(=O)O[C@@]12C[C@@H](C)[C@@]3(O)[C@@H](C=C(CO)C[C@]4(O)C(=O)C(C)=C[C@@H]34)[C@@H]1C2(C)C,Active,24.6 to 848,8.7 to 328,–,–,–
CCCCCCCCCCCCCCCC(=O)O[C@@H]1[C@@H](C)[C@]2(O)[C@@H]3C=C(C)C(=O)[C@@H]3CC(C=O)=C[C@H]2[C@@H]2C(C)(C)[C@]12OC(C)=O,–,24.6 to 848,8.7 to 328,–,–,–
CCCCCCCCCCCC(=O)O[C@@]12C[C@@H](C)[C@@]3(O)[C@@H](C=C(CO)C[C@]4(O)C(=O)C(C)=C[C@@H]34)[C@@H]1C2(C)C,Active,24.6 to 848,8.7 to 328,–,–,–
C/C(=C\C(=O)O[C@@H]1[C@H](C)C[C@H]2O[C@]1(O)[C@@H](O)[C@@]1(C)CC[C@H](O1)C(C)(C)/C=C/[C@H](C)C2=O)C(C)O (stereo partly specified),–,–,8.7 to 328,–,–,–
CC/C(C)=C/C(=O)O[C@@H]1[C@H](C)C[C@H]2O[C@]1(O)[C@@H](O)[C@@]1(C)CC[C@H](O1)C(C)(C)/C=C/[C@H](C)C2=O,–,–,8.7 to 328,–,–,–
CC1(C)CC[C@@H]2C(=O)C=C3[C@]4(C)CC[C@@H]5[C@](C)(CC[C@@H](OC(=O)/C=C/c6ccccc6)[C@@]5(C)C(=O)O)[C@H]4CC[C@@]3(C)[C@@H]2C1,Active,24.6 to 848,8.7 to 328,1.7,–,–
CSc1ncnc2c1ncn2[C@@H]1O[C@H](CO)[C@@H](O)[C@H]1O,–,–,–,5.4,291,60.5
CC1(C)CC[C@@H]2C(=O)C=C3[C@]4(C)CC[C@@H]5[C@](C)(CC[C@@H](OC(=O)c6ccccc6)[C@@]5(C)C(=O)O)[C@H]4CC[C@@]3(C)[C@@H]2C1,–,24.6 to 848,8.7 to 328,–,–,–
CCCCCCCC/C=C\CCCC(=O)O[C@@]12C[C@@H](C)[C@@]3(O)[C@@H](C=C(C=O)C[C@]4(O)C(=O)C(C)=C[C@@H]34)[C@@H]1C2(C)C,–,24.6 to 848,8.7 to 328,–,–,–
CCCCCCCCCCCCCCCC(=O)O[C@@H]1[C@@H](C)[C@]2(O)[C@@H]3C=C(C)C(=O)[C@@H]3CC(CO)=C[C@H]2[C@@H]2C(C)(C)[C@]12OC(C)=O,Active,24.6 to 848,8.7 to 328,–,–,–
CC(=O)O[C@H](C)/C(C)=C/C(=O)O[C@@H]1[C@H](C)C[C@H]2O[C@]1(O)[C@@H](O)[C@@]1(C)CC[C@H](O1)C(C)(C)/C=C/[C@H](C)C2=O,–,–,8.7 to 328,–,–,–
CCCCCCCCCCCC(=O)O[C@@]12C[C@@H](C)[C@@]3(O)[C@@H](C=C(C=O)C[C@]4(O)C(=O)C(C)=C[C@@H]34)[C@@H]1C2(C)C,–,24.6 to 848,8.7 to 328,–,–,–
CCCCCCCC/C=C\CCCC(=O)O[C@@]12C[C@@H](C)[C@@]3(O)[C@@H](C=C(CO)C[C@]4(O)C(=O)C(C)=C[C@@H]34)[C@@H]1C2(C)C,Active,24.6 to 848,8.7 to 328,1.8,–,–
